Measured values as given in patent publication US20040006236A1, “Diaminopropionic acid derivatives” (priority 1999, published 2004).
pIC50: −log10 of the molar value. Read-outs that look alike come from different tables or passages of the source.

Assays:
[1] = target: T1, ICAM-1 binding to immobilized Mac-1 (Homo sapiens, UniProt P05107+P11215); assay: Mac-1/ICAM-1 screening assay (solid-phase ELISA); conditions: read-out: Mac-1/ICAM-1 Protein-Protein Assay IC50
T1 construct: made in house; host or cells: transfected 293 cells (Mac-1)
In short: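 Competitive solid-phase ELISA: membrane Mac-1 from transfected 293 cells coated at 3 μg/mL in 20 mM Hepes pH 7.2/0.14 M NaCl/1 mM MnCl2; compounds (0.12 nM-20 μM, 1:4 series) plus 5dICAM-Ig (40 μg/mL, added) 2 h at 37° C. Bound ICAM-Ig detected with HRP anti-human IgG Fc, TMB, A450; IC50 reported.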

[2] = system: T lymphocyte proliferation (C57BI/6 spleen cells with irradiated BALB/c spleen cells); assay: Mixed lymphocyte reaction (MLR), one-way; format: cell-based, mice; conditions: read-out: MLR IC50
In short: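 Irradiated BALB/c spleen cells mixed with C57BI/6 spleen cells in RPMI1640/10% heat-inactivated FBS/2-mercaptoethanol, with serial antagonist dilutions; 3 days at 5% CO2. Tritiated thymidine (0.5 μCi/well) added on day 3; incorporation counted by liquid scintillation after a further 6 h.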

T1 sequence (P05107 23-769, other chains not shown): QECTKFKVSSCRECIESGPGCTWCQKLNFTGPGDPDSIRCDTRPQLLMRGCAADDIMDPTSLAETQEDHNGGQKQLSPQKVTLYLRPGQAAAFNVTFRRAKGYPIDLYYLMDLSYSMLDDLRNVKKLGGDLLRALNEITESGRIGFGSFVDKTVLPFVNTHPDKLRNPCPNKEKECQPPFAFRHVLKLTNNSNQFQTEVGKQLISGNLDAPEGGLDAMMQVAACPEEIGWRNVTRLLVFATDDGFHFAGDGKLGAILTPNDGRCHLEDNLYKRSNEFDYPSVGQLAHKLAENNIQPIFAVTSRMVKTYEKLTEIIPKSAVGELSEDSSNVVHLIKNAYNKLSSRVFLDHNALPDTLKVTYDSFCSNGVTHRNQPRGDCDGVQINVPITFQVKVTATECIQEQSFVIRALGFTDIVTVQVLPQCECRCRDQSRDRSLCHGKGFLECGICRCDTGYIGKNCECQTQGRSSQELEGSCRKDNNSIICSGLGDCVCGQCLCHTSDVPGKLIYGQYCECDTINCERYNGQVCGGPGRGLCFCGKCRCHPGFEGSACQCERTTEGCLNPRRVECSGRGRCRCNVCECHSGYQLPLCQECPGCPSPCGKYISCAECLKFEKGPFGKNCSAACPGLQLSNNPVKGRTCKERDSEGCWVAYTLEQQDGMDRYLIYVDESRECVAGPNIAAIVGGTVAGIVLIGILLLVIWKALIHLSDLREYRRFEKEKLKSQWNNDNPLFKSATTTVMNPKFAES

| pIC50 [1] | Compound | pIC50 ([2]; Mus musculus, T-lymphocyte) | pIC50 [2] |
| --- | --- | --- | --- |
| 8.17 | COc1cccc(C(=O)NC[C@H](NC(=O)c2ccc(C(=O)NCc3cccc(O)c3)cc2Cl)C(=O)O)c1 [Example 76, N-[2-chloro-4-[[[(3-hydroxyphenyl)methyl]amino]-carbonyl]benzoyl]-3-(3-methoxybenzoylamino)-L-alanine] | 6.51 | – |
| 7.25 | O=C1CC[C@@H](C(=O)NC[C@H](NC(=O)c2ccc(C(=O)NCc3cccc(O)c3)cc2Cl)C(=O)O)O1 [Example 96] | 5.89 | – |
| 6.92 | O=C(NCc1cccc(O)c1)c1ccc(C(=O)N[C@@H](CNC(=O)C2CC2)C(=O)O)c(Cl)c1 [Example 97] | 5.81 | – |
| 7.30 | O=C(NCc1cccc(O)c1)c1ccc(C(=O)N[C@@H](CNC(=O)C2(c3ccccc3)CC2)C(=O)O)c(Cl)c1 [Example 99] | 5.70 | – |
| 7.49 | O=C(NCc1cccc(O)c1)c1ccc(C(=O)N[C@@H](CNC(=O)C2CCC2)C(=O)O)c(Cl)c1 [Example 100] | 6.15 | – |
| 7.54 | O=C(NCc1cccc(O)c1)c1ccc(C(=O)N[C@@H](CNC(=O)C2CCCC2)C(=O)O)c(Cl)c1 [Example 101] | 6.25 | – |
| 7.30 | COCCC1(C(=O)NC[C@H](NC(=O)c2ccc(C(=O)NCc3cccc(O)c3)cc2Cl)C(=O)O)CCCC1 [Example 102] | 6.40 | – |
| 7.68 | O=C(NCc1cccc(O)c1)c1ccc(C(=O)N[C@@H](CNC(=O)C2(c3ccccc3)CCCC2)C(=O)O)c(Cl)c1 [Example 103] | 6.28 | – |
| 7.60 | O=C(NCc1cccc(O)c1)c1ccc(C(=O)N[C@@H](CNC(=O)C2CCCCC2)C(=O)O)c(Cl)c1 [Example 104] | 6.11 | – |
| 7.66 | CC1(C(=O)NC[C@H](NC(=O)c2ccc(C(=O)NCc3cccc(O)c3)cc2Cl)C(=O)O)CCCCC1 [Example 105] | 6.55 | – |
| 6.57 | O=C(NCc1cccc(O)c1)c1ccc(C(=O)N[C@@H](CNC(=O)[C@H](CC2CCCCC2)n2cccc2)C(=O)O)c(Cl)c1 [Example 110] | 5.00 | – |
| 7.36 | Cc1noc(C)c1CCC(=O)NC[C@H](NC(=O)c1ccc(C(=O)NCc2cccc(O)c2)cc1Cl)C(=O)O [Example 111] | 6.30 | – |
| 7.74 | O=C(CCN1CCCCC1)NC[C@H](NC(=O)c1ccc(C(=O)NCc2cccc(O)c2)cc1Cl)C(=O)O [Example 112] | 6.43 | – |
| 7.52 | C/C=C/C(=O)NC[C@H](NC(=O)c1ccc(C(=O)NCc2cccc(O)c2)cc1Cl)C(=O)O [Example 113] | 6.46 | – |
| 7.32 | COc1ccc(/C=C/C(=O)NC[C@H](NC(=O)c2ccc(C(=O)NCc3cccc(O)c3)cc2Cl)C(=O)O)cc1 [Example 114] | 5.78 | – |
| 7.37 | O=C(/C=C/c1cccnc1)NC[C@H](NC(=O)c1ccc(C(=O)NCc2cccc(O)c2)cc1Cl)C(=O)O [Example 115] | 5.87 | – |
| 7.74 | O=C(/C=C/c1cccs1)NC[C@H](NC(=O)c1ccc(C(=O)NCc2cccc(O)c2)cc1Cl)C(=O)O [Example 116] | 5.89 | – |
| 7.48 | CC(=O)Oc1ccccc1C(=O)NC[C@H](NC(=O)c1ccc(C(=O)NCc2cccc(O)c2)cc1Cl)C(=O)O [Example 117] | 6.54 | – |
| 7.64 | Nc1cccc(C(=O)NC[C@H](NC(=O)c2ccc(C(=O)NCc3cccc(O)c3)cc2Cl)C(=O)O)c1 [Example 118] | – | 6.84 |
| 7.59 | NS(=O)(=O)c1ccc(C(=O)NC[C@H](NC(=O)c2ccc(C(=O)NCc3cccc(O)c3)cc2Cl)C(=O)O)cc1 [Example 119] | 6.38 | – |
| 6.94 | O=C(NCc1cccc(O)c1)c1ccc(C(=O)N[C@@H](CNC(=O)c2ccccc2Br)C(=O)O)c(Cl)c1 [Example 120] | 6.05 | – |
| 8.05 | O=C(NCc1cccc(O)c1)c1ccc(C(=O)N[C@@H](CNC(=O)c2cccc(Br)c2)C(=O)O)c(Cl)c1 [Example 121] | 6.28 | – |
| 7.49 | O=C(NCc1cccc(O)c1)c1ccc(C(=O)N[C@@H](CNC(=O)c2ccccc2Cl)C(=O)O)c(Cl)c1 [Example 122] | 6.03 | – |
| 8.16 | O=C(NCc1cccc(O)c1)c1ccc(C(=O)N[C@@H](CNC(=O)c2cccc(Cl)c2)C(=O)O)c(Cl)c1 [Example 123] | 6.52 | – |
| 7.46 | O=C(NCc1cccc(O)c1)c1ccc(C(=O)N[C@@H](CNC(=O)c2ccc(Cl)cc2)C(=O)O)c(Cl)c1 [Example 124] | 5.60 | – |
| 7.96 | N#Cc1cccc(C(=O)NC[C@H](NC(=O)c2ccc(C(=O)NCc3cccc(O)c3)cc2Cl)C(=O)O)c1 [Example 126] | 6.40 | – |
| 7.64 | CN(C)c1cccc(C(=O)NC[C@H](NC(=O)c2ccc(C(=O)NCc3cccc(O)c3)cc2Cl)C(=O)O)c1 [Example 127] | 6.34 | – |

| pIC50 [1] | Compound | pIC50 ([2]; Mus musculus, T-lymphocyte) | pIC50 [2] |
| --- | --- | --- | --- |
| 6.91 | CN(C)c1ccc(C(=O)NC[C@H](NC(=O)c2ccc(C(=O)NCc3cccc(O)c3)cc2Cl)C(=O)O)cc1 [Example 128] | 5.31 | – |
| 7.28 | CCOc1ccc(C(=O)NC[C@H](NC(=O)c2ccc(C(=O)NCc3cccc(O)c3)cc2Cl)C(=O)O)cc1 [Example 130] | 5.52 | – |
| 8.01 | O=C(NCc1cccc(O)c1)c1ccc(C(=O)N[C@@H](CNC(=O)c2cccc(F)c2)C(=O)O)c(Cl)c1 [Example 131] | 6.67 | – |
| 8.15 | O=C(NCc1cccc(O)c1)c1ccc(C(=O)N[C@@H](CNC(=O)c2cccc(O)c2)C(=O)O)c(Cl)c1 [Example 132] | 7.09 | – |
| 8.00 | O=C(NCc1cccc(O)c1)c1ccc(C(=O)N[C@@H](CNC(=O)c2cccc(I)c2)C(=O)O)c(Cl)c1 [Example 133] | 6.20 | – |
| 7.59 | COc1ccccc1C(=O)NC[C@H](NC(=O)c1ccc(C(=O)NCc2cccc(O)c2)cc1Cl)C(=O)O [Example 134] | 5.81 | – |
| 7.21 | COc1ccc(C(=O)NC[C@H](NC(=O)c2ccc(C(=O)NCc3cccc(O)c3)cc2Cl)C(=O)O)cc1 [Example 135] | 5.58 | – |
| 7.80 | COC(=O)c1cccc(C(=O)NC[C@H](NC(=O)c2ccc(C(=O)NCc3cccc(O)c3)cc2Cl)C(=O)O)c1 [Example 136] | 6.31 | – |
| 7.66 | Cc1ccccc1C(=O)NC[C@H](NC(=O)c1ccc(C(=O)NCc2cccc(O)c2)cc1Cl)C(=O)O [Example 137] | 6.49 | – |
| 8.00 | Cc1cccc(C(=O)NC[C@H](NC(=O)c2ccc(C(=O)NCc3cccc(O)c3)cc2Cl)C(=O)O)c1 [Example 138] | 6.69 | – |
| 7.33 | Cc1ccc(C(=O)NC[C@H](NC(=O)c2ccc(C(=O)NCc3cccc(O)c3)cc2Cl)C(=O)O)cc1 [Example 139] | 5.76 | – |
| 7.33 | O=C(NCc1cccc(O)c1)c1ccc(C(=O)N[C@@H](CNC(=O)c2ccccc2[N+](=O)[O-])C(=O)O)c(Cl)c1 [Example 140] | 6.46 | – |
| 8.02 | O=C(NCc1cccc(O)c1)c1ccc(C(=O)N[C@@H](CNC(=O)c2cccc([N+](=O)[O-])c2)C(=O)O)c(Cl)c1 [Example 141] | 6.35 | – |
| 7.89 | O=C(NCc1cccc(O)c1)c1ccc(C(=O)N[C@@H](CNC(=O)c2ccc([N+](=O)[O-])cc2)C(=O)O)c(Cl)c1 [Example 142] | 6.30 | – |
| 7.21 | CCCCCOc1ccc(C(=O)NC[C@H](NC(=O)c2ccc(C(=O)NCc3cccc(O)c3)cc2Cl)C(=O)O)cc1 [Example 143] | 4.92 | – |
| 7.28 | O=C(NCc1cccc(O)c1)c1ccc(C(=O)N[C@@H](CNC(=O)c2ccccc2Oc2ccccc2)C(=O)O)c(Cl)c1 [Example 144] | 5.74 | – |
| 7.62 | O=C(NCc1cccc(O)c1)c1ccc(C(=O)N[C@@H](CNC(=O)c2cc(F)c(F)cc2F)C(=O)O)c(Cl)c1 [Example 145] | 5.84 | – |
| 6.69 | Cc1noc(C)c1C(=O)NC[C@H](NC(=O)c1ccc(C(=O)NCc2cccc(O)c2)cc1Cl)C(=O)O [Example 153] | – | – |
| – | C[C@@H](NC(=O)c1cc(Cl)c(C(=O)N[C@@H](CNC(=O)c2cccs2)C(=O)O)c(Cl)c1)c1cccc2ccccc12 [Example 346, N-[2,6-dichloro-4-[[[(1R)-1-(1-naphthalenyl)ethyl]amino]carbonyl]benzoyl]-3-[(thiophene-2-carbonyl)amino]-L-alanine] | 7.17 | – |
| – | C[C@@H](NC(=O)c1cc(Cl)c(C(=O)N[C@@H](CNC(=O)c2ccccc2)C(=O)O)c(Cl)c1)c1cccc2ccccc12 [Example 347] | 6.60 | – |
| – | O=C(NCc1cccc(O)c1)c1cc(Cl)c(C(=O)N[C@@H](CNC(=O)c2cccc(F)c2)C(=O)O)c(Cl)c1 [Example 349] | 7.38 | – |
| – | O=C(NCc1cccc(O)c1)c1cc(Cl)c(C(=O)N[C@@H](CNC(=O)c2cccc(O)c2)C(=O)O)c(Cl)c1 [Example 350] | 7.92 | – |
| – | COc1ccc(C(=O)NC[C@H](NC(=O)c2c(Cl)cc(C(=O)NCc3cccc(O)c3)cc2Cl)C(=O)O)cc1O [Example 351] | 7.64 | – |
| – | O=C(NCc1cccc(O)c1)c1cc(Cl)c(C(=O)N[C@@H](CNC(=O)c2sccc2Br)C(=O)O)c(Cl)c1 [Example 353] | 7.28 | – |
| – | O=C(NCc1cccc(O)c1)c1cc(Cl)c(C(=O)N[C@@H](CNC(=O)c2ccc(Br)s2)C(=O)O)c(Cl)c1 [Example 354] | 6.69 | – |
| – | Cc1ccc(C(=O)NC[C@H](NC(=O)c2c(Cl)cc(C(=O)NCc3cccc(O)c3)cc2Cl)C(=O)O)s1 [Example 358] | 7.19 | – |
